Read-outs that look alike come from different tables or passages of the source.
How the values were obtained:
AR = molecular target: T1, AR (Homo sapiens, UniProt P10275); test: SAFETYScan NHR Nuclear Translocation, Agonist; assay type: cell-based
T1 sequence (P10275 1-920): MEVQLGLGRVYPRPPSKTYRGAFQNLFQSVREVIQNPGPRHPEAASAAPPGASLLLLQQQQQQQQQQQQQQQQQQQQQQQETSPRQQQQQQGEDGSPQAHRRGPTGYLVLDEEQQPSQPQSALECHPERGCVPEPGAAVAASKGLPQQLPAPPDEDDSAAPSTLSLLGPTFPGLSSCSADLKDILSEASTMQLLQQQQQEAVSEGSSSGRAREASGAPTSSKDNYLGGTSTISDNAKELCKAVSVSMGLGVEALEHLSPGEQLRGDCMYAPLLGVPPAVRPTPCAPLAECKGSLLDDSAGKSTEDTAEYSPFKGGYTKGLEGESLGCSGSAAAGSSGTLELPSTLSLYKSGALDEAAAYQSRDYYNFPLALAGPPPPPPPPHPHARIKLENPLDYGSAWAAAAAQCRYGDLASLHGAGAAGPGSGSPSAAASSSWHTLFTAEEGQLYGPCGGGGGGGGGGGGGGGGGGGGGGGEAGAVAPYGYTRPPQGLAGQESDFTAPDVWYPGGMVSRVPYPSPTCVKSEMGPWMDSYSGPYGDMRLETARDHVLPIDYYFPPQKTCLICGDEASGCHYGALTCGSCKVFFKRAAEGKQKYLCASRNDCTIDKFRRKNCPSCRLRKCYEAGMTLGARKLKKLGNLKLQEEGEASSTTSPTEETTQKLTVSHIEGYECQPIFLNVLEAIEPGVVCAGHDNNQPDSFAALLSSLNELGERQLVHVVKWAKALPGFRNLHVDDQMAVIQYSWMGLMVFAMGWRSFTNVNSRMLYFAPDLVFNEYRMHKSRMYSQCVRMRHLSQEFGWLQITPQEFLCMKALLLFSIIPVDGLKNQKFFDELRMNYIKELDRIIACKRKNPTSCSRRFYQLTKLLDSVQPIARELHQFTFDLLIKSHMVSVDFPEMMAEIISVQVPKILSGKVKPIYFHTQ
Text: Supplement jm1c02175_si_002.xlsx, sheet "SAFETYScan" | column: RC50 (uM); Max Response

SU-DHL-4 = test: Cell proliferation assay (14 days), SU-DHL-4
Method: (§1) Cells were seeded in 96-well culture plates at a density of 2500 cells/well in RPMI-1640 medium (Sigma-
(§2) Aldrich) supplemented with 10% FBS (Gibco). Compounds were initially dispensed into 96-well U-bottom
(§3) plates using an Echo 550 acoustic dispenser (Labcyte Inc.), then diluted in RPMI-1640 medium and
(§4) transferred onto the cells. Cells were treated with 8 compound concentrations in duplicate, ranging from
(§5) with compound for 14 days, with medium changes at days 3, 7 and 10 carried out as follows: fresh 96-well
(§6) cell culture plates were prepared containing 100 µl medium plus compound at the assay concentrations
(§7) (white plates were used on day 10 to optimise luminescence measurement). Assay plates containing cells
(§8) were vortexed to mix and cell density in one control well was counted using a Coulter Z2 cell counter
(§9) (Beckman Coulter). The volume of medium containing 2500 cells in the control well was calculated and this volume of cells was transferred from every well of the assay plates to the corresponding well of the fresh plates containing compound. After 14 days, CellTiter Glo reagent (Promega) was added to the medium in each well of the assay plate at a ratio of 1:2, mixed on a plate shaker, then incubated at room temperature for 10 minutes. Luminescence was measured using an Envision plate reader (Perkin Elmer) and the relative luminescence at each compound concentration, compared to DMSO alone, was calculated. GI50 were determined using a 4-parameter curve fit in Dotmatics (Bishops Stortford, UK).

[1] = molecular target: BCL6 in OCI-Ly1 DLBCL xenograft (Homo sapiens, UniProt P41182); settings: single dose 50 mg/kg po
Method: weighed and dosing volumes adjusted accordingly.
7.3.2 Preparation of OCI-Ly1 xenograft model in mouse
Twenty days post injection 24 tumour-bearing mice (between 0.4 and 0.6 cm3) were selected for the study
Mice were then grouped n=3 for the following time points: 12, 16 & 24 hours
Compounds and vehicle were administered po (formulated as described in Supplementary experimental
single treatment of vehicle.
Blood (~1 mL) was taken from anaesthetized mice, via intracardiac puncture, using a 27 gauge needle and
a syringe pre-coated with heparin (200 Units/mL), The heparinized blood was microcentrifuged for 2
minutes and ~200 uL of plasma was aspirated to a labelled tube, frozen on dry-ice and dedicated to
pharmacokinetic analysis (PK). Each tumour was excised, divided into two halves, weighed and then snap
frozen in liquid nitrogen, dedicating one half to PK analysis and the other half to pharmacodynamic analysis (PD). All frozen material was permanently stored in a -80°C freezer.
7.3.6 Tumour lysis and Wes method
Tumours were lysed in lysis buffer (50 mM Tris-HCl, pH 7.4, 150 mM NaCl, 1% Triton X-100 (v/v), 1 mM PMSF, 1 mM activated sodium vanandate, 1 mM EDTA, phosphatase inhibitors 2 and 3 (1:50m dilution) and protease cocktail (1:100 dilution)) using reinforced homogenizing tubes containing metal beads using a Precellys 24 with cryolys cooling at 6000 rpm, 2 × 20 s (Stretton Scientific). Lysates were incubated on ice for 15 minutes, spun at 14000 rpm at 4 °C for 10 minutes and supernatants collected and aliquoted.
Samples were stored at -80 °C until use. Protein concentration was determined by diluting 1:10 with lysis buffer and measuring on Direct Detect® spectrometer according to manufacturer’s instructions.
according to manufacturer’s instructions (ProteinSimple) with multiplexing BCL6 (CST14895 at 1:150
Data was analysed using Compass for SW software. BCL6 data was normalised to GAPDH and transferred to GraphPad Prism 7.

HT = test: Cell proliferation assay (14 days), HT
Method: as §1, §2, §3, §4, §5, §6, §7, §8, §9

kinases (468) [2] = molecular target: kinases (468) (Homo sapiens, UniProt P51955); settings: NEK2; 1000 nM
kinases (468) [3] = molecular target: kinases (468) (Homo sapiens, UniProt Q9Y3S1); settings: kinase WNK2 (Entrez WNK2); compound concentration 1000 nM
kinases (468) [4] = molecular target: kinases (468) (Homo sapiens, UniProt Q13233); settings: MAP3K1; 1000 nM
kinases (468) [5] = molecular target: kinases (468) (Homo sapiens, UniProt P42336, E545A); settings: PIK3CA(E545A); 1000 nM
kinases (468) [6] = molecular target: kinases (468) (Homo sapiens, UniProt P07949); settings: RET; 1000 nM
kinases (468) [7] = molecular target: kinases (468) (Homo sapiens, UniProt Q5S007); settings: LRRK2; 1000 nM
kinases (468) [8] = molecular target: kinases (468) (Homo sapiens, UniProt Q16288); settings: kinase TRKC (Entrez NTRK3); compound concentration 1000 nM
kinases (468) [9] = molecular target: kinases (468) (Homo sapiens, UniProt Q9NRM7); settings: LATS2; 1000 nM
kinases (468) [10] = molecular target: kinases (468) (Homo sapiens, UniProt Q9BUB5); settings: MKNK1; 1000 nM
kinases (468) [11] = molecular target: kinases (468) (Homo sapiens, UniProt O43293); settings: DAPK3; 1000 nM
kinases (468) [12] = molecular target: kinases (468) (Homo sapiens, UniProt P00533, L858R/T790M); settings: EGFR(L858R,T790M); 1000 nM
kinases (468) [13] = molecular target: kinases (468) (Homo sapiens, UniProt P09619); settings: PDGFRB; 1000 nM
kinases (468) [14] = molecular target: kinases (468) (Homo sapiens, UniProt Q9UK32); settings: compound concentration 1000 nM
kinases (468) [15] = molecular target: kinases (468) (Homo sapiens, UniProt P42336, I800L); settings: PIK3CA(I800L); 1000 nM
kinases (468) [16] = molecular target: kinases (468) (Homo sapiens, UniProt Q5VT25); settings: MRCKA (CDC42BPA); 1000 nM
kinases (468) [17] = molecular target: kinases (468) (Homo sapiens, UniProt P07333); settings: 1000 nM
kinases (468) [18] = molecular target: kinases (468) (Homo sapiens, UniProt Q6ZWH5); settings: NEK10; 1000 nM
kinases (468) [19] = molecular target: kinases (468) (Homo sapiens, UniProt O75676); settings: compound concentration 1000 nM
kinases (468) [20] = molecular target: kinases (468) (Homo sapiens, UniProt P42685); settings: FRK; 1000 nM

kinases (468) (Homo sapiens, UniProt P07333), sequence (P07333 20-972): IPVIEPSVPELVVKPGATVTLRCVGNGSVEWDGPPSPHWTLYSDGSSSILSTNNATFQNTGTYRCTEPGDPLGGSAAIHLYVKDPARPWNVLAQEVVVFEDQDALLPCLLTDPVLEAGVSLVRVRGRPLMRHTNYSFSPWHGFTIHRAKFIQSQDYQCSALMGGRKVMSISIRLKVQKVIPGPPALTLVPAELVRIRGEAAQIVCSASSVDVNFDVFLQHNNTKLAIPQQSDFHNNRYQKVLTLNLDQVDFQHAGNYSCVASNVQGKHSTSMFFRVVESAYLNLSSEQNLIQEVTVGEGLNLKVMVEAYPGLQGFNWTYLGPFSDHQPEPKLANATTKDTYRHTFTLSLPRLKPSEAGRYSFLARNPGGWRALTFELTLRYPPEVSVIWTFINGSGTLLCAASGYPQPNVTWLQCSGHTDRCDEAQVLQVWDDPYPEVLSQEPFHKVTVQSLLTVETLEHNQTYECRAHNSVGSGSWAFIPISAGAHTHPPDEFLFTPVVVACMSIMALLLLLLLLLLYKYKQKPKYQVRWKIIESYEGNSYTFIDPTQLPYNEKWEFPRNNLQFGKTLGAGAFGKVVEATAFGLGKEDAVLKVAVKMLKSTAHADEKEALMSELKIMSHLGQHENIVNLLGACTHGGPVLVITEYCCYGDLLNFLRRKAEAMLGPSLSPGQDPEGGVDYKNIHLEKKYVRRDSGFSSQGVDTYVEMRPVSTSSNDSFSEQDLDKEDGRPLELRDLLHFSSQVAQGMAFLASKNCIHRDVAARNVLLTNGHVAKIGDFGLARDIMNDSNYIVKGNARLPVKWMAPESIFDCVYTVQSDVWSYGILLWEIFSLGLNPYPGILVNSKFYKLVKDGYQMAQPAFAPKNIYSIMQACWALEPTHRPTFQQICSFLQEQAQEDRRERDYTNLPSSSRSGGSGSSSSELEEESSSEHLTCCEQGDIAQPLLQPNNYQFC
kinases (468) (Homo sapiens, UniProt Q9UK32), sequence (Q9UK32 whole entry): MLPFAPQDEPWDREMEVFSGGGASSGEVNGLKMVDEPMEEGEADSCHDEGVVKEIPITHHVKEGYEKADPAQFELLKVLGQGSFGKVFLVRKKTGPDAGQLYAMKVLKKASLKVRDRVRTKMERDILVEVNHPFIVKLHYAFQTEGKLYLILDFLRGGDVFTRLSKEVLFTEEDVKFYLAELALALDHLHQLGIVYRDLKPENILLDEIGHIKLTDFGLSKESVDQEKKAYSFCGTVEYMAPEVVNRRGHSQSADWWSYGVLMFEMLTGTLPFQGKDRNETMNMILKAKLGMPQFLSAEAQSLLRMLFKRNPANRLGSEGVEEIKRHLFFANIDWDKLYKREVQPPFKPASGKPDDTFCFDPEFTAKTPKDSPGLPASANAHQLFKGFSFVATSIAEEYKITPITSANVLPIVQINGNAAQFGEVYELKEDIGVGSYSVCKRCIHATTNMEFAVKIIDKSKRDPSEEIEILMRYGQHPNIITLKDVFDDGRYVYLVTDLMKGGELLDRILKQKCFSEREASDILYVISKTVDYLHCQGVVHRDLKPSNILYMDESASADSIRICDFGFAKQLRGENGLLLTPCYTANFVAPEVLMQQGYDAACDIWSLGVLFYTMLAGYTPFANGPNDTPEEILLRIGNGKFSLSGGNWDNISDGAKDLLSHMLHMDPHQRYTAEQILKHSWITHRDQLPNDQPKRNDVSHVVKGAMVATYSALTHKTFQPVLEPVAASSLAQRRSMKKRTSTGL
kinases (468) (Homo sapiens, UniProt O75676), sequence (O75676 whole entry): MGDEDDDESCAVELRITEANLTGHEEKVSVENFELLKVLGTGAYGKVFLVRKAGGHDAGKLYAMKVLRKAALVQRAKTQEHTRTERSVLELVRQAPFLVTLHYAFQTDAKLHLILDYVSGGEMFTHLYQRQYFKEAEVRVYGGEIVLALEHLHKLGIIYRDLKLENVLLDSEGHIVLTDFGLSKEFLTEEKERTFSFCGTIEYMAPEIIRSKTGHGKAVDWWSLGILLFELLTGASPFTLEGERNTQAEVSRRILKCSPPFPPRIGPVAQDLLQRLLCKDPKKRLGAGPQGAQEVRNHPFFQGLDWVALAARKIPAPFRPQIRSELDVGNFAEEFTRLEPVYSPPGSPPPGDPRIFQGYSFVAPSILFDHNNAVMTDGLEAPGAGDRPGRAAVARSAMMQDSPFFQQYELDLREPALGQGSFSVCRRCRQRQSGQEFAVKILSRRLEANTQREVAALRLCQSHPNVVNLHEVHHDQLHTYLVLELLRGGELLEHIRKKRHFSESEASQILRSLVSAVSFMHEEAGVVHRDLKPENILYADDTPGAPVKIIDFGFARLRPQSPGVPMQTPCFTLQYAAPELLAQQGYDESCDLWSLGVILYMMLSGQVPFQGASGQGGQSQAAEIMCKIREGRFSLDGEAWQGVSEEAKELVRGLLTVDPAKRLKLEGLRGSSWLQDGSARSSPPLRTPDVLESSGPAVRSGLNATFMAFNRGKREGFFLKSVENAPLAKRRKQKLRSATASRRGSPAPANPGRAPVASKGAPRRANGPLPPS
kinases (468) (Homo sapiens, UniProt Q6ZWH5), sequence (Q6ZWH5 whole entry): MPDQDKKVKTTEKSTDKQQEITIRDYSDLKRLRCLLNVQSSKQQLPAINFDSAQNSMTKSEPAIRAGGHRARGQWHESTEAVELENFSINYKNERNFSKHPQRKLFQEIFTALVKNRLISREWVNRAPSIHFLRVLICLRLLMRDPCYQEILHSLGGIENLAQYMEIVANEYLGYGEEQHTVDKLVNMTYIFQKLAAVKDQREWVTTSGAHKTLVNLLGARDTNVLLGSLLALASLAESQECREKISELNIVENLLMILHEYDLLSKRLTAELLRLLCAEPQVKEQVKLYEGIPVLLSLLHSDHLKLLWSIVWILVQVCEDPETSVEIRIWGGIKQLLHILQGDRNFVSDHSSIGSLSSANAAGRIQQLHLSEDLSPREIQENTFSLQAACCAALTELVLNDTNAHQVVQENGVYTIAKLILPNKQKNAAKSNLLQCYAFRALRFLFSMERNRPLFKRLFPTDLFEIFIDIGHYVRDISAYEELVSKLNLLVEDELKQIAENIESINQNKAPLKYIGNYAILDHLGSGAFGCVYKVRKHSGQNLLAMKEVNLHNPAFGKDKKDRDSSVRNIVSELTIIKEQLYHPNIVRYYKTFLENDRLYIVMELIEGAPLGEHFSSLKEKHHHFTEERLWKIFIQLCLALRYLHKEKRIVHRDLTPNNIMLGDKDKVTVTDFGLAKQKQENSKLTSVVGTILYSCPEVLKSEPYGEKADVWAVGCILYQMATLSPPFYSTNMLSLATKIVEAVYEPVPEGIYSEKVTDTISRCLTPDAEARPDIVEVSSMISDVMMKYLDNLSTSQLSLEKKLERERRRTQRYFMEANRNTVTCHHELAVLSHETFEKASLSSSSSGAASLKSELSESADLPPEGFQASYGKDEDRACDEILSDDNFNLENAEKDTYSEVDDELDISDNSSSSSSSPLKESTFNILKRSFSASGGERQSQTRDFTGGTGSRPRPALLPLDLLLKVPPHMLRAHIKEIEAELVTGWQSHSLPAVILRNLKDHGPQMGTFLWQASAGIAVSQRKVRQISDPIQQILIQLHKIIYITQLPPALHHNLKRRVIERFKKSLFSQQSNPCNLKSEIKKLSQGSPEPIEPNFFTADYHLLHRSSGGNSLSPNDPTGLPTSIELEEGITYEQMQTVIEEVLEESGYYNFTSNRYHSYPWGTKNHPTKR
kinases (468) (Homo sapiens, UniProt P07949), sequence (P07949 29-1114): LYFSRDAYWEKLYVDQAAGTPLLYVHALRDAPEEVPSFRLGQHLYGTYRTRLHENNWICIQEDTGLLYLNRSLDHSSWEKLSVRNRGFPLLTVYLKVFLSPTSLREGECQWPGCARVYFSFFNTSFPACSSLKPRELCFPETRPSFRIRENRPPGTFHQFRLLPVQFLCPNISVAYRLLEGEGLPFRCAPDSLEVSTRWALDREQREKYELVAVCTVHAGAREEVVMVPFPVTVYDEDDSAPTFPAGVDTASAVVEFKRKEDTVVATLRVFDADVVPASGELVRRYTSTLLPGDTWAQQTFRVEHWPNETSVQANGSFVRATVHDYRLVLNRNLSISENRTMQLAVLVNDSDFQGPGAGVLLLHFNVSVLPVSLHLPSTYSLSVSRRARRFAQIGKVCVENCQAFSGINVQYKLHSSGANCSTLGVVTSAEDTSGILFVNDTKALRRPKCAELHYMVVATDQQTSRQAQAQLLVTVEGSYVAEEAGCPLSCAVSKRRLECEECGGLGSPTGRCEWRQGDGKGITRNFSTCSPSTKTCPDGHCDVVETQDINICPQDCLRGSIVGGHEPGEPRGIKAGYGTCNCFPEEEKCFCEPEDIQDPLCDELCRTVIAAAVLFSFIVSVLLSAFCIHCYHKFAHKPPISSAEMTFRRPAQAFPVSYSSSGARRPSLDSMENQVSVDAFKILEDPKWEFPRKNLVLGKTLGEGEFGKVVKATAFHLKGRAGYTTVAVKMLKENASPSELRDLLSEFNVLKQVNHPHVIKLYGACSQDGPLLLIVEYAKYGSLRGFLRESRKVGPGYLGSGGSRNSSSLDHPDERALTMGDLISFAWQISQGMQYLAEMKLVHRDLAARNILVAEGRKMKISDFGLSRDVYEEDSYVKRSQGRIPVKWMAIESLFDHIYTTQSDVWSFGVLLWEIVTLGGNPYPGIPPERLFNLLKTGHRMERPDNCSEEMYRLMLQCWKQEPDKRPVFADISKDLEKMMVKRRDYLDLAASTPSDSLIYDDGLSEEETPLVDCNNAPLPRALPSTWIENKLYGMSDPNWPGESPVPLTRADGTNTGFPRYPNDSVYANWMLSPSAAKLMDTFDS

C[C@H]1C[C@@H](O)CN(c2ncc(Cl)c(Nc3ccc4c(c3)c3c(c(=O)n4C)OCC(F)(F)[C@H](C4CC4)N3)n2)C1 [12a CCT373566, (S)-10-((5-Chloro-2-((3R,5S)-3-hydroxy-5-methylpiperidin-1-yl)pyrimidin-4-yl)amino)-2-cyclopropyl-3,3-difluoro-7-methyl-1,2,3,4-tetrahydro-[1,4]oxazepino[2,3-c]quinolin-6(7H)-one]
Emax (AR; read-out: Max Response): 0% | EC50 (AR; read-out: RC50 (EC50)): > 10 µM | SU-DHL-4 GI50 (SU-DHL-4; 14-day proliferation assay): Very potent growth inhibition | GI50 (SU-DHL-4; Homo sapiens, SU-DHL-4, 336 h, read-out: SU-DHL-4 GI50): 0.0125 µM | adverse events ([1]; OCI-Ly1 xenograft SCID mice): No visible adverse events were observed | tumor concentrations versus plasma concentrations ([1]; 12, 16, 24 h): lower than plasma concentrations at all time points | BCL6 levels in tumor ([1]; 12, 16 and 24 h after dosing): significantly decreased at all time points | HT GI50 (HT; 14-day proliferation assay): Very potent growth inhibition | GI50 (HT; Homo sapiens, HT, 336 h, read-out: HT GI50): 0.008 µM

C[C@H]1C[C@@H](O)CN(c2ncc(Cl)c(Nc3ccc4c(c3)c3c(c(=O)n4C)OCC(F)(F)[C@H](C4CC4)N3)n2)C1 [CCT373566_9A]
Percent Control (kinases (468) [2]): 92% | Percent Control (kinases (468) [3]): 100% | Percent Control (kinases (468) [4]): 93% | Percent Control (kinases (468) [5]): 100% | Percent Control (kinases (468) [6]): 99% | Percent Control (kinases (468) [7]): 98% | Percent Control (kinases (468) [8]): 100% | Percent Control (kinases (468) [9]): 96% | Percent Control (kinases (468) [10]): 91% | Percent Control (kinases (468) [11]): 100% | Percent Control (kinases (468) [12]): 81% | Percent Control (kinases (468) [13]): 98% | Percent Control (kinases (468) [14]; kinase RSK4(Kin.Dom.1-N-terminal) (Entrez RPS6KA6)): 90% | Percent Control (kinases (468) [14]; kinase RSK4(Kin.Dom.2-C-terminal) (Entrez RPS6KA6)): 88% | Percent Control (kinases (468) [15]): 82% | Percent Control (kinases (468) [16]): 99% | Percent Control (kinases (468) [17]; CSF1R-autoinhibited): 77% | Percent Control (kinases (468) [17]; CSF1R): 100% | Percent Control (kinases (468) [18]): 99% | Percent Control (kinases (468) [19]; kinase RPS6KA4(Kin.Dom.1-N-terminal) (Entrez RPS6KA4)): 96% | Percent Control (kinases (468) [19]; kinase RPS6KA4(Kin.Dom.2-C-terminal) (Entrez RPS6KA4)): 100% | Percent Control (kinases (468) [20]): 100%

— article PMC9234961 (Journal of Medicinal Chemistry, 2022)
